Assay results from PMC13231895 (Antimicrobial Agents and Chemotherapy, 2026).

Assay: Plasma pharmacokinetics after single […] IV infusion of nacubactam 2 g coadministered with meropenem 2 g (Phase 1)
Format: in vivo, healthy adult male and female volunteers
Details: n = 21, geometric mean (CV%), 2 g nacubactam + 2 g meropenem IV
Experimental: The study consisted of a screening visit (Days −28 to −1), a treatment and sampling period (Day 1), and a safety follow-up visit (Days 7–14). […] The two drugs were administered concurrently as separate solutions through two separate lines via a large bore, double-lumen catheter, under the supervision of study personnel. […] While all participants received the same study drug treatment and followed the same blood sampling scheme, each individual was assigned to one of five possible timepoints (2, 3, 4, 6, or 8 h after the start of study drug administration) for the BAL procedure. Equal numbers of participants were assigned to each timepoint, and assignment of individual participants was at the discretion of the investigator. […] An additional plasma sample was taken at the same time as part of the BAL procedure to measure urea. The plasma samples were stored at −80°C pending analysis. […] PK parameters were estimated by non-compartmental analysis using Phoenix WinNonlin (version 6.4; Certara USA, Inc.) by Covance.

AUC0–8h: 275 (19) µg·h/mL
SMILES: NCCONC(=O)[C@@H]1CC[C@@H]2CN1C(=O)N2OS(=O)(=O)O [Nacubactam]
